“Also recorded” adds a separate entry of the source. Where two headings read alike, the source gives them in different places.
Columns and labels:
[1] = system: local microvasculature (finger); assay: Micro-patch applied to the finger, laser Doppler flowmetry; assay type: in vivo, human
Description: The difference likewise is seen in results generated by a laser Doppler scanner (discussed below).

[2] = system: local microvasculature (forehead); assay: Study B: acetylcholine and nitroglycerin micro-patches, laser Doppler flowmetry of forehead perfusion in healthy volunteers; assay type: in vivo, human; conditions: for increase in laser Doppler flowmetry readings, mean (95% CI): 10 healthy volunteers, forehead, plateau vs baseline; for time to marked rise in laser Doppler flowmetry voltage (flux) after drug application: each healthy volunteer; for blood flow at the micro-patch site, representative tracings: one healthy subject, FIG. 19
Text: (§1) Mixing was accomplished to achieve a final product that was smooth and free of abrasive particles. Based on trial and error testing, it was elected to pursue testing with acetylcholine chloride powder dissolved in water for placement on an adherent surface (e.g., clear tape). […] This dose is proportional to doses of MIOCHOL-E,™ (that is, a clinically available acetylcholine preparation that is used to produce papillary constriction (miosis) during cataract surgery) that had been tested in preliminary trials. However, the agent used for micro-patches can be superconcentrated compared to the solution used for intraocular injection—made possible because of the small delivery area.
The dry side of the acetylcholine “micro-patch” was adhered to the end of a laser Doppler flowmetry probe (a PF 5010 with Probe Model 407, Perimed, Sweden in accordance with a preferred embodiment) (see FIGS. 1 and 2). A sham drug micro-patch was made in the same way with 0.02-mL of HPLC-grade water instead of acetylcholine solution. Before micro-patch application, a DOUBLE-STICK DISC™ (3M Health Care, Neuss, Germany) (that is, the double-sided adhesive ring 6 discussed above) with an overall diameter of 38.1-mm and a central hole (or opening) diameter of 8.7-mm is placed at the site to be tested. The double-sided adhesive ring 6 serves as an adherent base onto which a monitor such as a laser Doppler flowmetry probe 1 is placed as well as to define the area (59.4-mm^2) for drug application. In addition to providing for targeted adherence, when placed between the micro-patch 2 and the study surface (as shown in FIG. 1) this further limits the area of drug delivery by providing a barrier to drug delivery from the outer regions of the micro-patch 2. As detailed below, this delivered as much as 10% of that used to constrict the pupil during cataract surgery Dose-response curve can be assessed with serial dilutions. […] Laser Doppler flowmetry is an exemplary form of potential monitoring (used in each of the Table 2 studies).
The creation of a nitroglycerin micro-patch so as to enable concurrent monitoring of an endothelium-dependent transdermal preparation (acetylcholine, described above) and an endothelium-independent vasodilator (nitroglycerin) is simpler than the creation of the acetylcholine micro-patch. […] The present invention provides not only for the application of the disclosed method for monitoring the local circulation but the tailoring of the micro-patch to ensure effective delivery throughout the monitoring site while avoiding delivery of excess drug that might predispose to remote and/or systemic effects. For a single laser Doppler flowmetry probe, the nitroglycerin micro-patch may be obtained by using a standard hole-punch to cut a 6-mm diameter (28.3-mm^2 area) section of a full size 0.6 mg/hr MINITRAN™ nitroglycerin patch (3M, Minnesota). Alternatively, for applications where one wishes to move the laser Doppler flowmetry probe so as to encompass a larger area (as with the inventive assembly in FIG. 16), a small rectangle may be appropriate. Such patches are designed for homogeneous delivery of drug at a rate of 0.03-mg/hour per 100-mm^2 area of patch, such that the section used in the inventive micro-patch delivered at a rate of approximately 0.008-mg/hr. Although not currently available, lesser or higher concentrations of nitroglycerin may be used for micro-patches, pending dose response studies to confirm local efficacy and lack of systemic effects. The nitroglycerin micro-patch then is placed onto a double-sided adhesive ring for adherence to a monitoring probe (see FIGS. 1 and 2) or it may be placed on the tissue under an elevated support assembly 131 or scanner (described below).
Methods: For each session, subjects lay on a bed in a semi-recumbent position in a temperature-controlled room (24+1° C.). A three-lead electrocardiogram and a noninvasive brachial artery blood pressure cuff were applied. […]

[3] = system: local microvasculature (forehead); assay: Study B: acetylcholine and nitroglycerin micro-patches, laser Doppler flowmetry of forehead perfusion in patients with diabetes; assay type: in vivo, human; conditions: 10 diabetic patients with retinopathy
Description: Methods: For each session, subjects lay on a bed in a semi-recumbent position in a temperature-controlled room (24+1° C.). A three-lead electrocardiogram and a noninvasive brachial artery blood pressure cuff were applied. The three laser Doppler flowmetry probes with customized acetylcholine, nitroglycerin, and placebo micro-patches (as described above) attached were adhered onto the three double-stick discs on the forehead so as to enable undisturbed monitoring and drug delivery. Laser Doppler flowmetry monitoring was performed continuously at each site until a vasodilatory plateau was maintained for ≧3 minutes or for a maximum of 20 minutes. Data were collected at a rate of 1000 Hz using Chart for Windows (ADlnstruments, Colorado Springs, Colo.).
The local microvascular effects of transdermal acetylcholine and nitroglycerin were first tested in 10 healthy volunteers (7 males, 3 females; mean age 36.1, range 19 to 56 years) without vascular disease or diabetes. […]
An investigator blinded to the status of the subject and to the nature of the study site assessed the laser Doppler tracing at each study site. […] The effects of the single dose of acetylcholine was compared to the single dose of nitroglycerin in the healthy volunteers, with the differences analyzed using Wilcoxon Signed Rank Test (WSRT). […]

[4] = system: local microvasculature (forehead); assay: Study D: impact of fatty meal on responses to nitroglycerin and acetylcholine micro-patches; assay type: in vivo, human; conditions: 10 minutes after patch application
Description: Two hours later, subjects underwent application of acetylcholine and nitroglycerin micro-patches. As described above, the former was prepared by mixing 100 mg of solid acetylcholine with […] of sterile water. From this solution (concentration of 14.3 mg/ml) we used an aliquot of just under 0.14 ml (less than 10% of the standard 20 mg dose injected into the eye during cataract surgery). The latter consisted of a 1.4 cm×1.4 cm translucent square (cut from a full-sized nitroglycerin patch) to delivery 0.008 mg/hr of nitroglycerin to the study site. Before each patch application, seven sites of the forehead were monitored with a commercially available integrating laser Doppler flowmetry probe that averages the output from several closely packed light-transmitting channels (to partially overcome spatial heterogeneity). At 10 minutes after patch application, readings were repeated. Changes were analyzed using paired t-test.

[5] = system: local microvasculature (forehead); assay: Laser Doppler scanner imaging of micro-patch sites on the forehead; assay type: in vivo, human; conditions: several minutes after application, FIGS. 22-24
Text: Another alternative is provided by the laser Doppler scanning imager. […] [Wardell K, Braverman I M, Silverman D G, Nilsson G E: Spatial heterogeneity in normal skin perfusion recorded with laser Doppler imaging and flowmetry. Microvascular Research 48(1):26-38, 1994 July]. […] This is accomplished by rapidly scanning an area by a shifting light that is sequentially directed to successive study sites by a mirror. […] This is because the laser Doppler scanner typically monitors a given site for fractions of a second. […] Compromises include rapidly scanning all sites at repeat intervals for a long enough period to overcome the effects of pulsations and oscillations. However, a relatively long interval is required to ensure this. Thus, the laser Doppler scanner mitigates spatial variability at the expense of temporal variability (e.g., beat-to-pulsations with each heart beat as well as oscillations in activity as a component of autonomic regulation of blood vessels).

[6] = system: local microvasculature (finger); assay: Laser Doppler scanner imaging of micro-patch sites on the fingers; assay type: in vivo, human; conditions: FIG. 25
Text: Nitroglycerin induces vasodilation independent of the parasympathetic pathways. […] Anesthesiology 2004;101:A246] and phenylephrine [Silverman D G, Stout R G: Distinction between atropine-sensitive control of microvascular and cardiac oscillatory activity. Microvasc Res 63:196-208, 2002].

[7] = system: local microvasculature (forehead); conditions: scopolamine applied with/before nicotine, FIG. 18
forehead blood flow = assay: Non-iontophoretic transdermal acetylcholine at the forehead, laser Doppler flowmetry (Table 2); assay type: in vivo, human; conditions: Silverman, <0.25 ml of 1%, inc
Text: as §1
The dry side of the acetylcholine “micro-patch” was adhered to the end of a laser Doppler flowmetry probe (a PF 5010 with Probe Model 407, Perimed, Sweden in accordance with a preferred embodiment) (see FIGS. 1 and 2). A sham drug micro-patch was made in the same way with 0.02-mL of HPLC-grade water instead of acetylcholine solution. […] As detailed below, this delivered as much as 10% of that used to constrict the pupil during cataract surgery Dose-response curve can be assessed with serial dilutions. […]

forearm blood flow = conditions: Iontophoresis, inc, cited from earlier work
[8] = system: local microvasculature (forehead)
Description: Prior to the customization of nitroglycerin according to the present invention, nicotine was customized in accordance with the purposes of present invention. This entailed customization of a commercially available clear NICODERM patch, nicotine delivery patch, (with 0.83 mg of nicotine/cm^2). Again, lesser or higher concentrations may be used for a micro-patch; these are not currently available, since currently available nicotine patches delivery a fixed dose/cm^2 patch such that a higher systemic dose is obtained by using a larger patch.
The preliminary investigations with nicotine micro-patches (0.83 mg/cm^2) entailed customizing a section of the micro-patch so that it adhered to an area of skin that was sufficient to deliver drug to the area under a laser Doppler flowmetry probe and that enabled attachment of the laser Doppler flowmetry probe to an upper surface of the micro-patch.

local microvasculature = assay: Fast Fourier transformation (FFT) of signals at micro-patch sites; assay type: in vivo, human
Description: This leads to present disclosure of a means to overcome the potential confusion: I herein introduce the application of spectral domain analysis [fast Fourier transformation (FFT), alluded to above, and variations thereof such as joint time frequency)] to characterize PTT values. This enables comparative assessment of: FFT of PTTPPG (primarily influenced by arrival of the stroke volume at underlying artery), FFT of PTTlaserDoppler (arrival of stroke volume at microvasculature), and FFT of PTTPPG-LaserDoppler.
Once combined monitoring becomes available at a given site, and then concurrent FFT analysis of PTT of artery, acv and vein will enable one to delineate the sites of microvascular and neuro-microvascular activity. In addition to micro-patch induced changes in readings between sites of measurement (e.g. PTT), we can also measure changes at sites of measurement (e.g., mean, heights). Again, confounders such as different units and differing criteria for onset may be avoided with FFT.

Row | SMILES | change in flow when applied to the finger [1] | increase in laser Doppler flowmetry readings, mean (95% CI) [2] | time to marked rise in laser Doppler flowmetry voltage (flux) after drug application [2] | blood flow at the micro-patch site, representative tracings [2] | mean percent increase in blood flow (95% CI) [3] | relative blood flow at the micro-patch site (laser Doppler scanner) [5] | flow at the micro-patch site (laser Doppler scanner) [6] | other results
1 | O=[N+]([O-])OCC(CO[N+](=O)[O-])O[N+](=O)[O-] [nitroglycerin] | significant change | 365% (179%-550%) | two | Prompt increases in blood flow | 116% (79%-153%) | increase in relative blood flow; also recorded: caused vasodilation; also recorded: Increased flow | induced vasodilation; also recorded: flow increased | change in systemic blood pressure and heart rate ([2]; healthy volunteers): lack of significant change; nitroglycerin/acetylcholine ratio of induced increase ([4]; two hours after fat-laden meal): 1.31; nitroglycerin/acetylcholine ratio of induced increase ([4]; two hours after nonfat meal): 0.94
2 | CN1[C@@H]2C[C@@H](OC(=O)[C@H](CO)c3ccccc3)C[C@H]1[C@@H]1O[C@@H]12 [scopolamine] | – | – | – | – | – | – | – | effect of scopolamine on the nicotine-induced increase in perfusion [7]: blunted; also recorded: inhibition
3 | CC(=O)OCC[N+](C)(C)C.[Cl-] [acetylcholine, acetylcholine chloride] | – | 406% (245%-566%) | two | Prompt increases in blood flow | 156% (91%-221%) | increase in relative blood flow; also recorded: increased blood flow | – | change in systemic blood pressure and heart rate ([2]; human, in vivo): lack of significant change; Change in Blood Flow (forehead blood flow): 50-250%; Change in Blood Flow (forearm blood flow; Morris, approx 0.25 ml of 1%): 50-100%; Change in Blood Flow (forearm blood flow; Noon, approx 0.25 ml of 2%): 1000%
4 | CN1CCCC1c1cccnc1 (stereo not drawn) [nicotine] | no significant change | – | – | – | – | increase in relative blood flow; also recorded: caused vasodilation; also recorded: greatest flow | lack of increased flow | increase in flow at the active site ([8]; button-sized translucent micro-patch, forehead of seven healthy subjects): 388.4%; response at a remote site or in systemic indices (heart rate, blood pressure, flow at other sites) ([8]; drug delivery limited to the micro-patch): no response; flow at the nicotine site relative to baseline (laser Doppler flowmetry) ([8]; forehead, between 5 and 15 minutes after application, FIG. 17): approximately 300 % of baseline; increase in local blood flow ([8]; transdermal application at the forehead, within 30 min): 2-5 fold; local microvasculature's response to the micro-patch ([8]; transdermal micro-patch): vasodilation; change in the 0.03-0.12 Hz frequency range by FFT (local microvasculature; 0.03-0.12 Hz): marked increase; oscillatory activity at micro-patch site by FFT (local microvasculature; in vivo): marked oscillatory activity
